Reference: ChEMBL document CHEMBL1126982, “Design and synthesis of a DNA-cleaving metallopeptide” (Bioorg Med Chem Lett, 1993)

Experiments:
Type in all cases: nucleic-acid assay
Nucleic Acid [1] = assay: Cu(II) complex for cleavage of phi X174 RF plasmid DNA from intact form I to nicked form II at 350 uM of Cu(II)
Nucleic Acid [2] = assay: Cu(II) complex for cleavage of phi X174 RF plasmid DNA from intact form I to nicked form II at 250 uM compound and 100 uM Cu(II)
Nucleic Acid [3] = assay: Cu(II) complex for cleavage of phi X174 RF plasmid DNA from intact form I to nicked form II at 250 uM compound and 200 uM Cu(II)

Substance: H-GGHGYSPTSPSYGK-NH2
- Activity (Nucleic Acid [1]): > 90%
- Activity (Nucleic Acid [2]): 50%
- Activity (Nucleic Acid [3]): 70%
